Like-named read-outs stand apart in the source and are kept apart here.
Key:
μ-opioid receptor [1] = target: T1, μ-opioid receptor (Homo sapiens, UniProt P35372); assay: μ-opioid receptor radioligand dose-displacement binding assay
Protocol: Radioligand dose-displacement binding assays for μ-opioid receptors used 0.3 nM [^3H]-diprenorphine (Perkin Elmer, Shelton, Conn.), with […] membrane protein/well in a final volume of […] binding buffer (10 mM MgCl2, 1 mM EDTA, 5% DMSO, 50 mM HEPES, pH 7.4). Reactions were carried out in the absence or presence of increasing concentrations of unlabeled naloxone. All reactions were conducted in 96-deep well polypropylene plates for 2 hr at room temperature. […] The data were analyzed using the one-site competition curve fitting functions in GraphPad PRISM™ v. 3.0 or higher (San Diego, Calif.), or an in-house function for one-site competition curve-fitting.
Target sequence in this assay (P35372 whole entry): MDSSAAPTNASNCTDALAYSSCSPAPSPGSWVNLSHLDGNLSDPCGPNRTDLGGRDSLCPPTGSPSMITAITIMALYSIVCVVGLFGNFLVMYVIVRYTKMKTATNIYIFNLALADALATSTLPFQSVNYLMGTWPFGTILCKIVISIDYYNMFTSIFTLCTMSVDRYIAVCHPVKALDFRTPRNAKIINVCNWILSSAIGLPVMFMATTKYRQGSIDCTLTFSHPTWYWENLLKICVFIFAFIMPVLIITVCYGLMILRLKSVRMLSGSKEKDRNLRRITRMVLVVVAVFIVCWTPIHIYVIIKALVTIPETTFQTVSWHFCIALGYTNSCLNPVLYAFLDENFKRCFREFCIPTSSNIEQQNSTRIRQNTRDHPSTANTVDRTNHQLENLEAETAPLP

κ opioid receptor [2] = target: T2, κ opioid receptor (Homo sapiens, UniProt P41145); assay: κ-opioid receptor [35S]GTPγS functional assay; type: biochemical; parameters: expressed in transfected cells; conditions: for Emax: relative to the effect elicited by U69,593
T2 sequence (P41145 whole entry): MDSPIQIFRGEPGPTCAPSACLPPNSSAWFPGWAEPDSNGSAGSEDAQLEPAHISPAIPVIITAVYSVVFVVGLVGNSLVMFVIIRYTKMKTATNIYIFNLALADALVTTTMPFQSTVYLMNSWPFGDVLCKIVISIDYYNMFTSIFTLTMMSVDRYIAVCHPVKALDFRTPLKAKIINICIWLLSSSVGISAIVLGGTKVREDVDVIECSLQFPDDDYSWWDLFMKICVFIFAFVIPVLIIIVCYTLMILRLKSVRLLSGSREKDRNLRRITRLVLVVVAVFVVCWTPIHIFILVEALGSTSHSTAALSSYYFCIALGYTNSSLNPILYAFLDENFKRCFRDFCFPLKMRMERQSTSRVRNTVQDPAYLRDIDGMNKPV
Protocol: (§1) Functional [^35S]GTPγS binding assays were conducted as follows. κ opioid receptor membrane solution was prepared by sequentially adding final concentrations of 0.026 μg/μl κ membrane protein (in-house), 10 μg/mL saponin, 3 μM GDP and 0.20 nM [^35S]GTPγS to binding buffer (100 mM NaCl, 10 mM MgCl2, 20 mM HEPES, pH 7.4) on ice. The prepared membrane solution (190 μl/well) was transferred to 96-shallow well polypropylene plates containing 10 μl of 20× concentrated stock solutions of agonist prepared in DMSO. Plates were incubated for 30 min at a temperature of about 25° C. with shaking.
κ GTP EC50 is the concentration of a compound providing 50% of the maximal response for the compound at a κ receptor.
κ GTP Emax (%) is the maximal effect elicited by a compound relative to the effect elicited by U69,593.

μ-opioid receptor [3] = target: T1, μ-opioid receptor; assay: μ-opioid receptor [35S]GTPγS functional assay; type: biochemical; parameters: purchased Perkin Elmer, Shelton, Conn; conditions: for Emax: relative to the effect elicited by DAMGO; for EC50: μ-receptor membranes, read-out: GTPγS μ EC50
Protocol: [^35S]GTPγS functional assays were conducted using freshly thawed μ-receptor membranes (Perkin Elmer, Shelton, Conn.). Assay reactions were prepared by sequentially adding the following reagents to binding buffer (100 mM NaCl, 10 mM MgCl2, 20 mM HEPES, pH 7.4) on ice (final concentrations indicated): membrane protein (0.026 mg/mL), saponin ([…]), GDP ([…]) and [^35S]GTPγS (0.20 nM; Perkin Elmer, Shelton, Conn.). The prepared membrane solution (190 μl/well) was transferred to 96-shallow well polypropylene plates containing 10 μI of 20× concentrated stock solutions of the agonist [D-Ala^e, N-methyl-Phe^4 Gly-ol^5]-enkephalin (DAMGO) prepared in dimethyl sulfoxide (DMSO). Plates were incubated for 30 min at about 25° C. with shaking. […] Data were analyzed using the sigmoidal dose-response curve fitting functions in GraphPad PRISM v. 3.0, or an in-house function for non-linear, sigmoidal dose-response curve-fitting.
μ GTP EC50 is the concentration of a compound providing 50% of the maximal response for the compound at a μ-opioid receptor.
μ GTP Emax (%) is the maximal effect elicited by a compound relative to the effect elicited by DAMGO, a standard μ agonist. Generally, the μ GTP Emax (%) value measures the efficacy of a compound to treat or prevent pain or other Conditions.
Target sequence in this assay (P35372 whole entry, species assumed): as the sequence (P35372 whole entry) above

δ opioid receptor [4] = target: T3, δ opioid receptor (Homo sapiens, UniProt P41143); assay: δ-opioid receptor [35S]GTPγS functional assay; type: biochemical; parameters: purchased Perkin Elmer, Shelton, Conn; conditions: for Emax: relative to the effect elicited by met-enkephalin; for EC50: δ membrane protein
T3 sequence (P41143 whole entry): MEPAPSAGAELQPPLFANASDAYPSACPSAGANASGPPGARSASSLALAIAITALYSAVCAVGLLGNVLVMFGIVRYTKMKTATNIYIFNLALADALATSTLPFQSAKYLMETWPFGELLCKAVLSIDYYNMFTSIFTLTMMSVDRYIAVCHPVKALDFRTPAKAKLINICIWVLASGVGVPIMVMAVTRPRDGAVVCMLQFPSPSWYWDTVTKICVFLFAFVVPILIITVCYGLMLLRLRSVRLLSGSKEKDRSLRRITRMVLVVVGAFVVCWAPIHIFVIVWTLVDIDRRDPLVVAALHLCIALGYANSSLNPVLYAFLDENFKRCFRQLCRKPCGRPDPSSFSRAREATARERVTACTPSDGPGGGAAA
Protocol: as §1, with “δ” for “κ”, “(Perkin Elmer, Shelton, Conn.),” for “(in-house),”, “[…]” for “10 μl”
δ GTP EC50 is the concentration of a compound providing 50% of the maximal response for the compound at a δ receptor.
δ GTP Emax (%) is the maximal effect elicited by a compound relative to the effect elicited by met-enkephalin. […] In another embodiment, the Compounds of the Invention will have a δ GTP Emax (%) of about 100% or greater.

κ opioid receptor [5] = target: T2, κ opioid receptor; assay: κ-opioid receptor radioligand dose displacement binding assay; parameters: expressed in transfected cells; host or cells: HEK-293
Protocol: Membranes from recombinant HEK-293 cells expressing the human κ opioid receptor (κ) (cloned in house) were prepared by lysing cells in ice cold hypotonic buffer (2.5 mM MgCl2, 50 mM HEPES, pH 7.4) (10 mL/10 cm dish) followed by homogenization with a tissue grinder/Teflon pestle. Membranes were collected by centrifugation at 30,000×g for 15 min at 4° C. and pellets were resuspended in hypotonic buffer to a final concentration of 1-3 mg/mL. Protein concentrations were determined using the BioRad protein assay reagent with bovine serum albumen as standard. Aliquots of κ receptor membranes were stored at […]

δ opioid receptor [6] = target: T3, δ opioid receptor; assay: δ-opioid receptor radioligand dose-displacement binding assay
Protocol: δ-opioid Receptor Binding Assay Procedures were conducted as follows. Radioligand dose-displacement assays used 0.3 nM [^3H]-Naltrindole (Perkin Elmer, Shelton, Conn.; 33.0 Ci/mmole) with 5 μg membrane protein (Perkin Elmer, Shelton, Conn.) in a final volume of 500 μl binding buffer (5 mM MgCl2, 5% DMSO, 50 mM Trizma base, pH 7.4). Non-specific binding was determined in the presence of 25 μM unlabeled naloxone. All reactions were performed in 96-deep well polypropylene plates for 1 hr at a temperature of about 25° C. Binding reactions were terminated by rapid filtration onto 96-well Unifilter GF/C filter plates (Perkin Elmer, Shelton, Conn.) presoaked in 0.5% polyethylenimine (Sigma). Harvesting was performed using a 96-well tissue harvester (Perkin Elmer, Shelton, Conn.) followed by five filtration washes with 500 μl ice-cold binding buffer. Filter plates were subsequently dried at 50° C. for 1-2 hours. Fifty μl/well scintillation cocktail (Perkin Elmer, Shelton, Conn.) was added and plates were counted in a Packard Top-Count for 1 min/well.

[7] = [3H]-diprenorphine displacement, read-out: Ki (nM) Opioid Receptor μ
[8] = κ membrane protein (in-house), read-out: GTPγS κ EC50
[9] = [3H]-U69,593 displacement, HEK-293 membranes, read-out: Ki (nM) Opioid Receptor κ

SMILES	Ki (μ-opioid receptor [1]; [7])	Emax (κ opioid receptor [2])	EC50 (κ opioid receptor [2]; [8])	Emax (μ-opioid receptor [3])	EC50 (μ-opioid receptor [3])	Emax (δ opioid receptor [4])	EC50 (δ opioid receptor [4])	Ki (κ opioid receptor [5]; [9])	Ki (δ opioid receptor [6])	Ki (μ-opioid receptor [1])	EC50 (κ opioid receptor [2])	Ki (κ opioid receptor [5])
COc1ccc2c(c1)[C@@]1(CCCc3ccco3)CCN(CC3CC3)C(C2)C1C (stereo in doubt) [Compound 15, (2R,6S,11S)-3-(cyclopropylmethyl)-6-(3-(furan-2-yl)propyl)-8-methoxy-11-methyl-1,2,3,4,5,6-hexahydro-2,6-methanobenzo[d]azocine]	389 ± 90.2 nM	82.3%	104 nM	34.6%	303 nM	67%	143 nM	2.11 ± 0.22 nM	736 ± 196 nM	–	–	–
COc1ccc2c(c1)[C@@]1(CCCCNCC(C)C)CCN(CC3CC3)C(C2)[C@@H]1C [Compound 9, 4-((6S,11R)-3-(cyclopropylmethyl)-8-methoxy-11-methyl-1,2,3,4,5,6-hexahydro-2,6-methanobenzo[d]azocin-6-yl)-N-isobutylbutan-1-amine]	448 ± 113 nM	103%	58.1 nM	60%	643 nM	–	–	1.35 ± 0.57 nM	–	–	–	–
COc1ccc2c(c1)[C@@]1(CCCCOCc3ccccc3)CCN(CC3CC3)C(C2)[C@@H]1C [Compound 12, (6S,11R)-6-(4-(benzyloxy)butyl)-3-(cyclopropylmethyl)-8-methoxy-11-methyl-1,2,3,4,5,6-hexahydro-2,6-methanobenzo[d]azocine]	166 ± 51.8 nM	97.7%	14.4 nM	30.8%	580 nM	–	–	0.27 ± 0.01 nM	–	–	–	–
COc1ccc2c(c1)[C@@]1(CCCCO)CCN(CC3CC3)C(C2)[C@@H]1C [Compound 13, 4-((6S,11R)-3-(cyclopropylmethyl)-8-methoxy-11-methyl-1,2,3,4,5,6-hexahydro-2,6-methanobenzo[d]azocin-6-yl)butan-1-ol]	–	71.3%	–	–	–	–	–	–	16200 ± 3050 nM	3420 ± 763 nM	296 nM	7.15 ± 0.86 nM
COc1ccc2c(c1)[C@@]1(CCCC(=O)N[C@@H](C)C(N)=O)CCN(CC3CC3)C(C2)[C@@H]1C [Compound 14, N—((S)-1-amino-1-oxopropan-2-yl)-4-((6S,11R)-3-(cyclopropylmethyl)-8-methoxy-11-methyl-1,2,3,4,5,6-hexahydro-2,6-methanobenzo[d]azocin-6-yl)butanamide]	4270 ± 1360 nM	63%	1050 nM	64%	1300 nM	–	–	44 ± 17.7 nM	–	–	–	–
C[C@H]1[C@H]2Cc3ccc(O)cc3[C@]1(CCOc1cncc(C(=O)O)c1)CCN2CC1CC1 [Compound 16, 5-(2-((2R,6S,11R)-3-(cyclopropylmethyl)-8-hydroxy-11-methyl-1,2,3,4,5,6-hexahydro-2,6-methanobenzo[d]azocin-6-yl)ethoxy)nicotinic acid]	6.85 ± 1.48 nM	60.7%	67.9 nM	26%	8.95 nM	37.8%	2.48 nM	12.6 ± 2.11 nM	62.5 ± 11 nM	–	–	–
CC(C)N1CC[C@@]2(CCCC(N)=O)c3cc(O)ccc3C[C@@H]1[C@@H]2C [Compound 17, 4-((2R,6R,11R)-8-hydroxy-3-isopropyl-11-methyl-1,2,3,4,5,6-hexahydro-2,6-methanobenzo[d]azocin-6-yl)butanamide]	165 ± 6.97 nM	60.7%	107 nM	38%	68.2 nM	–	–	5 ± 0.53 nM	–	–	–	–
CC(C)CN1CC[C@@]2(CCCC(N)=O)c3cc(O)ccc3C[C@@H]1[C@@H]2C [Compound 18, 4-((2R,6R,11R)-8-hydroxy-3-isobutyl-11-methyl-1,2,3,4,5,6-hexahydro-2,6-methanobenzo[d]azocin-6-yl)butanamide]	19.8 ± 0.68 nM	43%	7.14 nM	25.3%	9.12 nM	74.3%	81 nM	0.51 ± 0.05 nM	155 ± 44.7 nM	–	–	–
C[C@H]1[C@H]2Cc3ccc(O)cc3[C@]1(CCCC(N)=O)CCN2CC1CC1 [Compound 20, 4-((2R,6R,11R)-3-(cyclopropylmethyl)-8-hydroxy-11-methyl-1,2,3,4,5,6-hexahydro-2,6-methanobenzo[d]azocin-6-yl)butanamide]	5.38 ± 0.43 nM	58.2%	6 nM	19%	3.18 nM	–	–	0.08 ± 0.01 nM	–	–	–	–
C[C@H](NC(=O)CCC[C@]12CCN(CC3CC3)[C@H](Cc3ccc(O)cc31)[C@@H]2C)C(N)=O [Compound 22, N—((S)-1-amino-1-oxopropan-2-yl)-4-((2R,6R,11R)-3-(cyclopropylmethyl)-8-hydroxy-11-methyl-1,2,3,4,5,6-hexahydro-2,6-methanobenzo[d]azocin-6-yl)butanamide]	6.33 ± 1.54 nM	53.3%	13.2 nM	22.3%	0.7 nM	–	–	0.41 ± 0.08 nM	–	–	–	–
COC(=O)c1cccc(C(=O)NCC[C@]23CCN(CC4CC4)[C@H](Cc4ccc(OC)cc42)[C@@H]3C)c1 [Compound 26, methyl 3-((2-((2R,6R,11R)-3-(cyclopropylmethyl)-8-methoxy-11-methyl-1,2,3,4,5,6-hexahydro-2,6-methanobenzo[d]azocin-6-yl)ethyl)carbamoyl)benzoate]	158 ± 44.3 nM	105%	15.3 nM	95%	46.1 nM	–	–	0.51 ± 0.07 nM	–	–	–	–

Source: patent US20180127374A1, “BE[…] AS OPIOID RECEPTORS MODULATORS” (Purdue Pharma L.P., priority 2012, published 2018)
